Assays:
[1] = test system: Glomerella lagenarium (Colletotrichum lagenarium); test: Fungicidal activity against Glomerella lagenarium (Colletotrichum lagenarium) liquid culture / cucumber / preventative (anthracnose); assay type: cell-based; conditions: Colletotrichum orbiculare; 20 ppm in the applied formulation; liquid culture (PDB), growth inhibition measured photometrically after 3 to 4 days; compared to untreated control; read-out: disease control
Outline: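 Photometric read-out of fungal growth after 2–7 days, expressed as percent antifungal activity versus untreated check. Cryo-stored conidia in PDB; compound at 20 ppm; dark, 24 °C, 96% RH.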

Phakopsora Pachyrhizi = test: Fungicidal activity against Phakopsora pachyrhizi / soybean / leaf disc preventative (Asian soybean rust); assay type: in vivo; conditions: foliar, 200 ppm in the applied formulation, soybean leaf disks, compared to untreated control leaf disks, read-out: disease control
Description: Leaf disks or leaf segments of various plant species are cut from plants grown in a greenhouse. The cut leaf disks or segments are placed in multiwell plates (24-well format) onto water agar. The leaf disks are sprayed with a test solution before (preventative) or after (curative) inoculation. Compounds to be tested are prepared as DMSO solutions (max. 10 mg/ml) which are diluted to the appropriate concentration with 0.025% Tween20 just before spraying. The inoculated leaf disks or segments are incubated under defined conditions (temperature, relative humidity, light, etc.) according to the respective test system. A single evaluation of disease level is carried out 3 to 14 days after inoculation, depending on the pathosystem. Percent disease control relative to the untreated check leaf disks or segments is then calculated.
Fungicidal Activity Against Phakopsora Pachyrhizi Soybean/Leaf Disc Preventative (Asian Soybean Rust)
Soybean leaf disks are placed on water agar in multiwell plates (24-well format) and sprayed with the formulated test compound diluted in water. One day after application leaf discs are inoculated by spraying a spore suspension on the lower leaf surface. After an incubation period in a climate cabinet of 24-36 hours in darkness at 20° C. and 75% rh leaf disc are kept at 20° C. with 12 h light/day and 75% rh. The activity of a compound is assessed as percent disease control compared to untreated when an appropriate level of disease damage appears in untreated check leaf disks (12 to 14 days after application).
The following compounds at 200 ppm in the applied formulation give at least 80% disease control in this test when compared to untreated control leaf disks under the same conditions, which show extensive disease development.

[2] = test system: Puccinia recondita f. Sp. Tritici; test: Fungicidal activity against Puccinia recondita f. sp. tritici / wheat / leaf disc curative (brown rust); assay type: in vivo; conditions: foliar, 24 h, 200 ppm in the applied formulation, wheat leaf segments, curative (applied 1 day after inoculation), compared to untreated control leaf disks, read-out: disease control
Outline: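 Inoculate cv. Kanzler segments on agar; hold dark, 19° C, 75% RH. Spray diluted formulated compound at day 1. Incubate 12 h light/12 h dark, same temperature and humidity; score % control vs untreated 6–8 days later.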

[3] = test system: Puccinia recondita f. Sp. Tritici; test: Fungicidal activity against Puccinia recondita f. sp. tritici / wheat / leaf disc preventative (brown rust); assay type: in vivo; conditions: foliar, 200 ppm in the applied formulation, wheat leaf segments, preventative, compared to untreated control leaf disks, read-out: disease control
Outline: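 Compound application precedes infection: segments of wheat cv. Kanzler, sprayed at 200 ppm, are inoculated with a spore suspension after 1 day. Incubation is at 19° C. with 75% relative humidity and 12 h light/12 h darkness, and control versus untreated leaves is rated 7 to 9 days post-application.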

SMILES | inhibition of growth at 20 ppm [1] [%] | pest or weed control at 200 ppm (Phakopsora Pachyrhizi) [%] | pest or weed control at 200 ppm [2] [%] | pest or weed control at 200 ppm [3] [%]
N#CC1(C(=O)OCCN(Cc2ccc(-c3noc(C(F)(F)F)n3)cc2)C(=O)C2(C#N)CC2)CC1 [Compound 1.730, 2-[(1-cyanocyclopropane-carbonyl)-[[4-[5-(trifluoromethyl)-1,2,4-oxadiazol-3-yl]phenyl]methyl]-amino]ethyl 1-cyanocyclopropane-carboxylate] | ≥ 80 | ≥ 80 | – | –
O=C(CC1CCCC1)N(Cc1ccc(-c2noc(C(F)(F)F)n2)cc1)C1CC1 [Compound 1.84, 2-cyclopentyl-N-cyclopropyl-N-[[4-[5-(trifluoromethyl)-1,2,4-oxadiazol-3-yl]phenyl]methyl]-acetamide] | ≥ 80 | ≥ 80 | – | –
CCCN(Cc1ccc(-c2noc(C(F)(F)F)n2)cc1)C(=O)C1CC1C (centres unmarked) [Compound 1.657, 2-methyl-N-propyl-N-[[4-[5-(trifluoromethyl)-1,2,4-oxadiazol-3-yl]phenyl]methyl]-cyclopropane-carboxamide] | ≥ 80 | ≥ 80 | – | –
O=C(ON(Cc1ccc(-c2noc(C(F)(F)F)n2)cc1)C(=O)c1ccccc1Cl)c1ccccc1Cl [Compound 1.755, [(2-chlorobenzoyl)-[[4-[5-(trifluoromethyl)-1,2,4-oxadiazol-3-yl]phenyl]methyl]-amino] 2-chlorobenzoate] | ≥ 80 | ≥ 80 | – | –
CCCCON(Cc1ccc(-c2noc(C(F)(F)F)n2)cc1)C(=O)CCCOC [Compound 1.643, N-butoxy-4-methoxy-N-[[4-[5-(trifluoromethyl)-1,2,4-oxadiazol-3-yl]phenyl]methyl]-butanamide] | ≥ 80 | ≥ 80 | – | –
COCCCC(=O)N(Cc1ccc(-c2noc(C(F)(F)F)n2)cc1)C1COC1 [Compound 1.746, 4-methoxy-N-(oxetan-3-yl)-N-[[4-[5-(trifluoromethyl)-1,2,4-oxadiazol-3-yl]phenyl]methyl]-butanamide] | – | ≥ 80 | – | –
O=C(OCCN(Cc1ccc(-c2noc(C(F)(F)F)n2)cc1)C(=O)c1ccccc1Cl)c1ccccc1Cl [Compound 1.710, 2-[(2-chlorobenzoyl)-[[4-[5-(trifluoromethyl)-1,2,4-oxadiazol-3-yl]phenyl]methyl]-amino]ethyl 2-chlorobonzoato] | – | ≥ 80 | – | –
C#CCN(Cc1ccc(-c2noc(C(F)(F)F)n2)cc1)C(=O)CC1CC1(F)F (centres unmarked) [Compound 1.197, 2-(2,2-difluorocyclopropyl)-N-prop-2-ynyl-N-[[4-[5-(trifluoromethyl)-1,2,4-oxadiazol-3-yl]phenyl]methyl]-acetamide] | – | ≥ 80 | – | –
C#CCOC(=O)NC(C(=O)N(Cc1ccc(-c2noc(C(F)(F)F)n2)cc1)CC1CC1)C(C)C (centres unmarked) [Compound 1.241, prop-2-ynyl N-[1-(cyclopropylmethyl-[[4-[5-(trifluoromethyl)-1,2,4-oxadiazol-3-yl]phenyl]methyl]-carbamoyl]-2-methyl-propyl]carbamate] | – | ≥ 80 | – | –
COC(C)C(=O)N(C)Cc1ccc(-c2noc(C(F)(F)F)n2)cc1 (centres unmarked) [Compound 1.530, 2-methoxy-N-methyl-N-[[4-[5-(trifluoromethyl)-1,2,4-oxadiazol-3-yl]phenyl]methyl]-propanamide] | ≥ 80 | – | ≥ 80 | ≥ 80
CCOC(=O)N(Cc1ccc(-c2noc(C(F)(F)F)n2)cc1)OC [Compound 2.1, ethyl N-methoxy-N-[[4-[5-(trifluoromethyl)-1,2,4-oxadiazol-3-yl]phenyl]methyl]-carbamate] | ≥ 80 | – | ≥ 80 | ≥ 80
C=CCN(Cc1ccc(-c2noc(C(F)(F)F)n2)cc1)C(=O)CNC(C)=O [Compound 1.481, 2-acetamido-N-allyl-N-[[4-[5-(trifluoromethyl)-1,2,4-oxadiazol-3-yl]phenyl]methyl]-acetamide] | ≥ 80 | – | ≥ 80 | ≥ 80

From patent US11180462B2, “Microbiocidal oxadiazole derivatives” (SYNGENTA PARTICIPATIONS AG, priority 2015, dated 2021)
